Residues, ends and D or L forms follow the SMILES beside them.
Key:
[1] = tested on: acute myocardial infarction; experiment: Infarct size at revascularization, given with cyclosporine; assay type: in vivo, human; conditions: along with cyclosporine at the time of reperfusion
Procedure: Study group. Men and women, 18 years of age or older, who present within 6 hours after the onset of chest pain, who have ST-segment elevation of more than 0.1 mV in two contiguous leads, and for whom the clinical decision is made to treat with percutaneous coronary intervention (PCI) will be eligible for enrollment. Patients are eligible for the study whether they are undergoing primary PCI or rescue PCI. Occlusion of the affected coronary artery (Thrombolysis in Myocardial Infarction (TIMI) flow grade 0) at the time of admission is also a criterion for inclusion. Angiography and Revascularization. […] Either separately or simultaneously, cyclosporine (final concentration, […] will be injected through the catheter. Normal saline (0.9% NaCl) will be used as a control. The patients in the control group receive an equivalent volume of normal saline. Infarct Size. The primary end point will be the size of the infarct as assessed by measurements of cardiac biomarkers. Blood samples are obtained at admission and repeatedly over the next 3 days. The area under the curve (AUC) (expressed in arbitrary units) for creatine kinase and troponin I release (Beckman kit) will be measured in each patient by computerized planimetry. […] The images are analyzed in short axis slices covering the entire left ventricle. […]

[2] = tested on: subjects at risk for developing hyperalgesia; experiment: Prevention of neuropathy or hyperalgesia in at-risk humans; assay type: in vivo, human; conditions: s.c., once daily
From the text: Subjects at risk for developing hyperalgesia will be recruited as they present in clinic for the treatment of conditions associated with the development of peripheral neuropathy or hyperalgesia. Independent studies will address neuropathy and hyperalgesia resulting from, caused by, or otherwise associated with genetic disorders, metabolic/endocrine complications, inflammatory diseases, vitamin deficiencies, malignant diseases, and toxicity, such as alcohol, organic metal, heavy metal, radiation, and drug toxicity. Subjects will be selected such that they are at risk for developing a single type of neuropathy or hyperalgesia, having no risk factors outside the scope of the study in which the subject is enrolled, and as yet not having symptoms associated with neuropathy or hyperalgesia. Subjects will be screened for their willingness to enroll in the study, and informed consent will be obtained. […]
After a focused interview about the medical history, baseline measurements of touch and sharpness detection thresholds, grooved pegboard tests, and thermal detection thresholds will be determined according to the methods described above, with statistical analysis as described above. […]
Subjects will be evaluated weekly during the trial for sharpness detection thresholds, grooved pegboard tests, and thermal detection thresholds. […]

CD36 = experiment: Example 4: CD36 mRNA in post-ischemic brain (real time PCR); assay type: in vivo, mouse; conditions: treatment at 0 and 6 hours after 30 minute ischemia
Procedure: Wild-type mice will be given saline vehicle (Veh, i.p., n=6), peptide conjugates (5 mg/kg, i.p., n=6), aromatic-cationic peptides (e.g., an equivalent molar dose of aromatic-cationic peptide based on the concentration of the aromatic-cationic peptide administered in the peptide conjugate treatment group), SPN10(s) (e.g., an equivalent molar dose of SPN10 based on the concentration of SPN10 administered in the peptide conjugate treatment group), or SPN10(s) in combination with aromatic-cationic peptides (e.g., an equivalent molar dose of SPN10 based on the concentration of SPN10 administered in the peptide conjugate treatment group and an equivalent molar dose of aromatic-cationic peptide based on the concentration of aromatic-cationic peptide administered in the peptide conjugate treatment group) at 0 and 6 hours after a 30 minute period of ischemia. Levels of CD36 mRNA in post-ischemic brain will be determined using real time PCR.

Structure (SMILES): N=C(N)NCCC[C@H](NC(=O)[C@@H](N)Cc1c[nH]c2ccccc12)C(=O)N[C@@H](Cc1c[nH]c2ccccc12)C(=O)N[C@@H](CCCCN)C(N)=O [SPN10, H-L-Trp-L-Arg-L-Trp-L-Lys-NH2] (H-WRWK-NH2)
- infarct size versus placebo [1]: smaller infarct
- development of neuropathy or hyperalgesia [2]: attenuated
- CD36 mRNA in the ipsilateral brain (CD36): significantly reduced

Reference: patent publication US20240108740A1, “THERAPEUTIC COMPOSITIONS INCLUDING SPN10 AND USES THEREOF” (Stealth BioTherapeutics Inc., priority 2022, published 2024)
